Results: ChEMBL document CHEMBL1909046, “DrugMatrix in vitro pharmacology data”

Tests used:
[1] = molecular target: Receptor tyrosine-protein kinase erbB-2 (Homo sapiens, UniProt P04626); assay: biochemical; format: cell-based, Insect cells; conditions: insect cells;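 further: inhibition of HER2 kinase enzyme activity, measured with Poly(Glu:Tyr) as the phosphorylation substrate; in other assays of this panel Not Active means under 50% inhibition at 10 µM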
[2] = DRUGMATRIX: Sigma2 radioligand binding (ligand: [3H] Ifenprodil); format: cell membranes, Rattus norvegicus, Wistar, Brain, Membrane; conditions: Not Active = under 50% inhibition at 10 µM
Melanocortin receptor 4 = Melanocortin receptor 4 (Homo sapiens, UniProt P32245); format: cell membranes, Membrane; conditions: hek293; further: in other assays of this panel Not Active means under 50% inhibition at 10 µM
[3] = molecular target: T1, C-C chemokine receptor type 4 (Homo sapiens, UniProt P51679); format: cell membranes, Membrane; conditions: chem-1; further: in other assays of this panel Not Active means under 50% inhibition at 10 µM
T1 sequence (P51679 whole entry): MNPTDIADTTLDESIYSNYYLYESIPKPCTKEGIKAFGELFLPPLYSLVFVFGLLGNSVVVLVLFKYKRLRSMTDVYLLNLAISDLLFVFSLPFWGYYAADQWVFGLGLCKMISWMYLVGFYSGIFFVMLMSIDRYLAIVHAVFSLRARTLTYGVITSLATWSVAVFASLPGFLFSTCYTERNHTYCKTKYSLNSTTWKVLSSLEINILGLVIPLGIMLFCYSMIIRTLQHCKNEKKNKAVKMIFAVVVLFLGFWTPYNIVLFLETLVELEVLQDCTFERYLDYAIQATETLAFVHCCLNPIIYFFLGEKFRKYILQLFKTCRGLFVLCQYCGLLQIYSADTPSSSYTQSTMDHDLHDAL

[4] = molecular target: T2, 3-hydroxy-3-methylglutaryl-coenzyme A reductase (Homo sapiens, UniProt P04035); design: species or system Escherichia coli;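 further: enzyme inhibition assay of HMG-CoA reductase using radiolabeled [14C]HMG-CoA as substrate; in other assays of this panel Not Active means under 50% inhibition at 10 µM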
T2 sequence (P04035 whole entry): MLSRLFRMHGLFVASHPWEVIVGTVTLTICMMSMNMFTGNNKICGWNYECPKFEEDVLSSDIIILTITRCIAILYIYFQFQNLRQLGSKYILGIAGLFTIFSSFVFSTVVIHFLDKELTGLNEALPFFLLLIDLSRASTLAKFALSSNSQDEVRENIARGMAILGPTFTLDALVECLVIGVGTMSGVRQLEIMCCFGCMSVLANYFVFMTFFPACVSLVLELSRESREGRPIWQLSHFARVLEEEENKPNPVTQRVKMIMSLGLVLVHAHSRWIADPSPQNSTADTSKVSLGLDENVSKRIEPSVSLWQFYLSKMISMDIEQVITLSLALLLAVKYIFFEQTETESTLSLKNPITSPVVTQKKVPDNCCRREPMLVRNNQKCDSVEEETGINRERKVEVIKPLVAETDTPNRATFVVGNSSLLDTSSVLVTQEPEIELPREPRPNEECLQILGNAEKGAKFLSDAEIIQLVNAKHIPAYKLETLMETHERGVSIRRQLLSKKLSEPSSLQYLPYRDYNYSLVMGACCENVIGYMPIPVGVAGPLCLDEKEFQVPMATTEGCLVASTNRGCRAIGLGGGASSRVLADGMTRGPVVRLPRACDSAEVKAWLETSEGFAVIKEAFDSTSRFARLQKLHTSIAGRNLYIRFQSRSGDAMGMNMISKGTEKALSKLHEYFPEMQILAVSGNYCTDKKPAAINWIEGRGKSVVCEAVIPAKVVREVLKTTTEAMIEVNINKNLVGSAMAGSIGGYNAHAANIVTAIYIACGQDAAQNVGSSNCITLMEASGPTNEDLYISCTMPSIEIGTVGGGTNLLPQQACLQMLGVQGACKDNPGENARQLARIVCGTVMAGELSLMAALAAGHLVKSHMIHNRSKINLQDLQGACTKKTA

Caspase-1 = molecular target: T3, Caspase-1 (Homo sapiens, UniProt P29466); design: species or system Escherichia coli
T3 sequence (P29466 whole entry): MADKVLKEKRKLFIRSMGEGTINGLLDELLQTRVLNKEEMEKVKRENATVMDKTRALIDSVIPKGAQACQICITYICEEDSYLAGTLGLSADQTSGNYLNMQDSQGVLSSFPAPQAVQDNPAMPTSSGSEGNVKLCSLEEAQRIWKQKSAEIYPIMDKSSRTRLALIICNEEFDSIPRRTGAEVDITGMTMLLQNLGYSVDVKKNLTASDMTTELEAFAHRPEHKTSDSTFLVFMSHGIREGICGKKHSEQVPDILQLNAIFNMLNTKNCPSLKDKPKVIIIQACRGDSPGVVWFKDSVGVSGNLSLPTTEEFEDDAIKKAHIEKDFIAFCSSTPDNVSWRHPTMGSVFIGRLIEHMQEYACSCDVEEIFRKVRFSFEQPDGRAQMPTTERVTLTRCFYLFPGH

[5] = molecular target: Sodium-dependent dopamine transporter (Homo sapiens, UniProt Q01959); assay: DRUGMATRIX: Dopamine Transporter radioligand binding (ligand: [125I] RTI-55); format: cell membranes, CHO-K1, Membrane; conditions: cho-k1; Not Active = under 50% inhibition at 10 µM
Endothelin-1 receptor = molecular target: T4, Endothelin-1 receptor (Homo sapiens, UniProt P25101); format: cell membranes, CHO-K1, Membrane; conditions: cho-k1; further: in other assays of this panel Not Active means under 50% inhibition at 10 µM
T4 sequence (P25101 whole entry): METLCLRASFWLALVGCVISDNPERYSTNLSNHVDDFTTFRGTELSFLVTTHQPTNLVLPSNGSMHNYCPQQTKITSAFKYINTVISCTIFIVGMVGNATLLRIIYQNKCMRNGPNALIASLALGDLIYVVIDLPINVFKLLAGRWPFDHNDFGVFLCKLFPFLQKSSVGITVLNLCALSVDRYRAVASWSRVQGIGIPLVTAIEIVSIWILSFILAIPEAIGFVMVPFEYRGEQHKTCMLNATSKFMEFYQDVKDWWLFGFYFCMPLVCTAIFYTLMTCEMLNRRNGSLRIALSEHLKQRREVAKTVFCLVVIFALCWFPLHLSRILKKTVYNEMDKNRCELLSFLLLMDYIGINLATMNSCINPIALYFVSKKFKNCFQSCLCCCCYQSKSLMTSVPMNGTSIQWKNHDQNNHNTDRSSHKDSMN

Sodium-dependent dopamine transporter, sequence (Q01959 whole entry): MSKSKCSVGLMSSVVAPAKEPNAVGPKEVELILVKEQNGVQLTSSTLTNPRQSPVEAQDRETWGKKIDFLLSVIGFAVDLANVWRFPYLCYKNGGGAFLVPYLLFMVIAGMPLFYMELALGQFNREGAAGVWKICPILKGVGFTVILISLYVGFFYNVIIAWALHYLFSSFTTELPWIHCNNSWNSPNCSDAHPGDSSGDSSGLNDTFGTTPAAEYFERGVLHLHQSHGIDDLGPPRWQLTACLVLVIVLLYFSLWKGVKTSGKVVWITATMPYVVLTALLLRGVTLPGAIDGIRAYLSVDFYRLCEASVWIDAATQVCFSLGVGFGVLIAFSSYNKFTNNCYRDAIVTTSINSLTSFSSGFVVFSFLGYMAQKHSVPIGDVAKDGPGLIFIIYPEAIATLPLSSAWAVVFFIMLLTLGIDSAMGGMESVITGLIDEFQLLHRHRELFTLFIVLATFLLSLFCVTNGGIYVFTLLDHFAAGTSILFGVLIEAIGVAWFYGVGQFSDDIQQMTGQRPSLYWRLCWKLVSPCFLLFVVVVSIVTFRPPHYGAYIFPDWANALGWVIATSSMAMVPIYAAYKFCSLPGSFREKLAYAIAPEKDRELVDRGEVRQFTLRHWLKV
Melanocortin receptor 4, sequence (P32245 whole entry): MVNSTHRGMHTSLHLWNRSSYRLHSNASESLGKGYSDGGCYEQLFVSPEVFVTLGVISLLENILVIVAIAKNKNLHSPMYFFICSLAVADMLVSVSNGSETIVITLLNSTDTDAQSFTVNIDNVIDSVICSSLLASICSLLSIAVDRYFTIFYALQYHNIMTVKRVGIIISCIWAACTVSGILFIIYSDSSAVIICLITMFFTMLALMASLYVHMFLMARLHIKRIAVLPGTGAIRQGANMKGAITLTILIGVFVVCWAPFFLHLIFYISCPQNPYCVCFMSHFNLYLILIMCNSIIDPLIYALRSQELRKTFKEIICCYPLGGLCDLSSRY
Receptor tyrosine-protein kinase erbB-2, sequence (P04626 whole entry): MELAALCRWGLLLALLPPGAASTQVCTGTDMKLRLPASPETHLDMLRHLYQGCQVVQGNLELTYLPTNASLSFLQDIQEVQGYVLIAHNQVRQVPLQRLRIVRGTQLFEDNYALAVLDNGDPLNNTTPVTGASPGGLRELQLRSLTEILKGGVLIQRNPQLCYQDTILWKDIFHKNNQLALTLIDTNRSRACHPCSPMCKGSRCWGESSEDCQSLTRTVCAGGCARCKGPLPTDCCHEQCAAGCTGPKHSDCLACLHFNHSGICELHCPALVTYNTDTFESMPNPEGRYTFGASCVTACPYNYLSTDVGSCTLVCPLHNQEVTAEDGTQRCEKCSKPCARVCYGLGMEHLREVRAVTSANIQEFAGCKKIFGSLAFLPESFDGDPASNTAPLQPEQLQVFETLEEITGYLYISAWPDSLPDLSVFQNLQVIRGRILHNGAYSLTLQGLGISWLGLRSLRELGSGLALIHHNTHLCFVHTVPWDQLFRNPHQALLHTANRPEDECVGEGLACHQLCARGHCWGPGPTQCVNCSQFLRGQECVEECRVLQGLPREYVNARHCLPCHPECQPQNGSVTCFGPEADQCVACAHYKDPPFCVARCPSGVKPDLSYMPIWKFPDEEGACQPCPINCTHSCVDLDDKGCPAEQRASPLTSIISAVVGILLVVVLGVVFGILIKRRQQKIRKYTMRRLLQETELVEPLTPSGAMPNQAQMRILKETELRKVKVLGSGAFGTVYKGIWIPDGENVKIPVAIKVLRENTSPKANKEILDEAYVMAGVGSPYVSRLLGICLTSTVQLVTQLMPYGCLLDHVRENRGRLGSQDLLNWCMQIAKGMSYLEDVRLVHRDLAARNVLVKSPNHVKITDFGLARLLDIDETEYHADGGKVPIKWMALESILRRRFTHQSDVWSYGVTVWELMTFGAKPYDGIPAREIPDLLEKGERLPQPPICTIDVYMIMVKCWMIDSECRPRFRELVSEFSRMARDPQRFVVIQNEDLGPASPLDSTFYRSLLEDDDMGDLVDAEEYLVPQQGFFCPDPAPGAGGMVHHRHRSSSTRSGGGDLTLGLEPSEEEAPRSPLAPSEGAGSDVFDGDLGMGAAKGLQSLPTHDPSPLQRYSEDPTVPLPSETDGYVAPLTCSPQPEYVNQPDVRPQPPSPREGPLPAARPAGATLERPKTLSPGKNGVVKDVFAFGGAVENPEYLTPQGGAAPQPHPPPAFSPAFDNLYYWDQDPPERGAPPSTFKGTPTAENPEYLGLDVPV

O=P(O)(O)C(O)(Cc1cccnc1)P(=O)(O)O [RISEDRONIC ACID]
Not Active: IC50 [1] | IC50 [2] | Ki [2] | IC50 (Melanocortin receptor 4) | IC50 [3] | IC50 [4] | IC50 (Caspase-1) | IC50 [5] | IC50 (Endothelin-1 receptor)

CN(CCOc1ccc(CC2SC(=O)NC2=O)cc1)c1ccccn1 (stereo unspecified) [ROSIGLITAZONE]
Not Active: IC50 [1] | IC50 [2] | Ki [2] | IC50 (Melanocortin receptor 4) | IC50 [3] | IC50 [4] | IC50 (Caspase-1) | IC50 [5] | IC50 (Endothelin-1 receptor)

C=C(C)[C@H]1Cc2c(ccc3c2O[C@@H]2COc4cc(OC)c(OC)cc4[C@@H]2C3=O)O1 [ROTENONE]
Not Active: IC50 [1] | IC50 [2] | Ki [2] | IC50 (Melanocortin receptor 4) | IC50 [3] | IC50 [4] | IC50 (Caspase-1) | IC50 [5] | IC50 (Endothelin-1 receptor)

C#CCN(C)[C@H](C)Cc1ccccc1 [SELEGILINE]
Not Active: IC50 [1] | IC50 [2] | Ki [2] | IC50 (Melanocortin receptor 4) | IC50 [3] | IC50 [4] | IC50 (Caspase-1) | IC50 [5] | IC50 (Endothelin-1 receptor)

CO[C@H]1C[C@@H]2CC[C@@H](C)[C@@](O)(O2)C(=O)C(=O)N2CCCC[C@H]2C(=O)O[C@H]([C@H](C)C[C@@H]2CC[C@@H](O)[C@H](OC)C2)CC(=O)[C@H](C)/C=C(\C)[C@@H](O)[C@@H](OC)C(=O)[C@H](C)C[C@H](C)/C=C/C=C/C=C/1C [SIROLIMUS]
Not Active: IC50 [1] | IC50 [2] | Ki [2] | IC50 (Melanocortin receptor 4) | IC50 [3] | IC50 [4] | IC50 (Caspase-1) | IC50 [5] | IC50 (Endothelin-1 receptor)

CN[C@@H]1[C@H](O)[C@H](NC)[C@H]2O[C@@]3(O)C(=O)C[C@@H](C)O[C@H]3O[C@@H]2[C@H]1O [SPECTINOMYCIN]
Not Active: IC50 [1] | IC50 [2] | Ki [2] | IC50 (Melanocortin receptor 4) | IC50 [3] | IC50 [4] | IC50 (Caspase-1) | IC50 [5] | IC50 (Endothelin-1 receptor)

Nc1ccc(S(=O)(=O)Nc2ncccn2)cc1 [SULFADIAZINE]
Not Active: IC50 [1] | IC50 [2] | Ki [2] | IC50 (Melanocortin receptor 4) | IC50 [3] | IC50 [4] | IC50 (Caspase-1) | IC50 [5] | IC50 (Endothelin-1 receptor)

COc1ncnc(NS(=O)(=O)c2ccc(N)cc2)c1OC [SULFADOXINE]
Not Active: IC50 [1] | IC50 [2] | Ki [2] | IC50 (Melanocortin receptor 4) | IC50 [3] | IC50 [4] | IC50 (Caspase-1) | IC50 [5] | IC50 (Endothelin-1 receptor)

Nc1ccc(S(=O)(=O)Nc2nccs2)cc1 [SULFATHIAZOLE]
Not Active: IC50 [1] | IC50 [2] | Ki [2] | IC50 (Melanocortin receptor 4) | IC50 [3] | IC50 [4] | IC50 (Caspase-1) | IC50 [5] | IC50 (Endothelin-1 receptor)

C[C@]12CC[C@H]3[C@@H](CCC4=CC(=O)CC[C@@]43C)[C@@H]1CC[C@@H]2O [TESTOSTERONE]
Not Active: IC50 [1] | IC50 [2] | Ki [2] | IC50 (Melanocortin receptor 4) | IC50 [3] | IC50 [4] | IC50 (Caspase-1) | IC50 [5] | IC50 (Endothelin-1 receptor)

CC(C)(C)NC[C@H](O)COc1nsnc1N1CCOCC1 [TIMOLOL]
Not Active: IC50 [1] | IC50 [2] | Ki [2] | IC50 (Melanocortin receptor 4) | IC50 [3] | IC50 [4] | IC50 (Caspase-1) | IC50 [5] | IC50 (Endothelin-1 receptor)

CCS(=O)(=O)CCn1c([N+](=O)[O-])cnc1C [TINIDAZOLE]
Not Active: IC50 [1] | IC50 [2] | Ki [2] | IC50 (Melanocortin receptor 4) | IC50 [3] | IC50 [4] | IC50 (Caspase-1) | IC50 [5] | IC50 (Endothelin-1 receptor)

C[C@@H]1C[C@H]2[C@@H]3CCC4=CC(=O)C=C[C@]4(C)C3=CC[C@]2(C)[C@H]1C(=O)CN1CCN(c2cc(N3CCCC3)nc(N3CCCC3)n2)CC1 [TIRILAZAD]
Not Active: IC50 [1] | IC50 [2] | Ki [2] | IC50 (Melanocortin receptor 4) | IC50 [3] | IC50 [4] | IC50 (Caspase-1) | IC50 [5] | IC50 (Endothelin-1 receptor)

NC[C@H]1O[C@H](O[C@H]2[C@H](O)[C@@H](O[C@H]3O[C@H](CO)[C@@H](O)[C@H](N)[C@H]3O)[C@H](N)C[C@@H]2N)[C@H](N)C[C@@H]1O [TOBRAMYCIN]
Not Active: IC50 [1] | IC50 [2] | Ki [2] | IC50 (Melanocortin receptor 4) | IC50 [3] | IC50 [4] | IC50 (Caspase-1) | IC50 [5] | IC50 (Endothelin-1 receptor)
